Reference: patent US10793563B2, “GCN2 inhibitors and uses thereof” (Merck Patent GmbH, priority 2018, dated 2020)
pIC50: −log10 of the molar value.

Assays:
[1] = target: GCN2 kinase (Homo sapiens (Human), UniProt Q9P2K8); experiment: GCN2 Enzyme Inhibition Assay (Transcreener ADP2 fluorescence polarization); type: biochemical; details: 280 μM ATP, 200 μM (RS)7 peptide, 4 nM GCN2, 25° C.
Summary of the method: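 Transcreener ADP2 fluorescence polarization detection of ADP from 4 nM GCN2 with (RS)7 substrate in 25 mM Tris-HCl pH 7.5, 50 mM NaCl, 10 mM MgCl2, 1 mM DTT. Compound pre-incubated with enzyme 10 min at 25 °C; reaction started by ATP, run 1 h at 25 °C. IC50 and Ki(app) by tight-binding fit.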

[2] = target: intracellular GCN2 (phosphorylation of the GCN2 substrate eIF2α) (Homo sapiens (Human), UniProt Q9P2K8); experiment: GCN2 Cellular Inhibition Assay (AlphaScreen SureFire P-eIF2α Ser51, borrelidin-treated U2OS cells); type: cell-based; details: 10 μM borrelidin, 1 h, phosphorylated eIF2α Ser51, read-out: GCN2 Biomarker (IC50)
intracellular GCN2 (phosphorylation of the GCN2 substrate eIF2α), sequence (Q9P2K8 whole entry): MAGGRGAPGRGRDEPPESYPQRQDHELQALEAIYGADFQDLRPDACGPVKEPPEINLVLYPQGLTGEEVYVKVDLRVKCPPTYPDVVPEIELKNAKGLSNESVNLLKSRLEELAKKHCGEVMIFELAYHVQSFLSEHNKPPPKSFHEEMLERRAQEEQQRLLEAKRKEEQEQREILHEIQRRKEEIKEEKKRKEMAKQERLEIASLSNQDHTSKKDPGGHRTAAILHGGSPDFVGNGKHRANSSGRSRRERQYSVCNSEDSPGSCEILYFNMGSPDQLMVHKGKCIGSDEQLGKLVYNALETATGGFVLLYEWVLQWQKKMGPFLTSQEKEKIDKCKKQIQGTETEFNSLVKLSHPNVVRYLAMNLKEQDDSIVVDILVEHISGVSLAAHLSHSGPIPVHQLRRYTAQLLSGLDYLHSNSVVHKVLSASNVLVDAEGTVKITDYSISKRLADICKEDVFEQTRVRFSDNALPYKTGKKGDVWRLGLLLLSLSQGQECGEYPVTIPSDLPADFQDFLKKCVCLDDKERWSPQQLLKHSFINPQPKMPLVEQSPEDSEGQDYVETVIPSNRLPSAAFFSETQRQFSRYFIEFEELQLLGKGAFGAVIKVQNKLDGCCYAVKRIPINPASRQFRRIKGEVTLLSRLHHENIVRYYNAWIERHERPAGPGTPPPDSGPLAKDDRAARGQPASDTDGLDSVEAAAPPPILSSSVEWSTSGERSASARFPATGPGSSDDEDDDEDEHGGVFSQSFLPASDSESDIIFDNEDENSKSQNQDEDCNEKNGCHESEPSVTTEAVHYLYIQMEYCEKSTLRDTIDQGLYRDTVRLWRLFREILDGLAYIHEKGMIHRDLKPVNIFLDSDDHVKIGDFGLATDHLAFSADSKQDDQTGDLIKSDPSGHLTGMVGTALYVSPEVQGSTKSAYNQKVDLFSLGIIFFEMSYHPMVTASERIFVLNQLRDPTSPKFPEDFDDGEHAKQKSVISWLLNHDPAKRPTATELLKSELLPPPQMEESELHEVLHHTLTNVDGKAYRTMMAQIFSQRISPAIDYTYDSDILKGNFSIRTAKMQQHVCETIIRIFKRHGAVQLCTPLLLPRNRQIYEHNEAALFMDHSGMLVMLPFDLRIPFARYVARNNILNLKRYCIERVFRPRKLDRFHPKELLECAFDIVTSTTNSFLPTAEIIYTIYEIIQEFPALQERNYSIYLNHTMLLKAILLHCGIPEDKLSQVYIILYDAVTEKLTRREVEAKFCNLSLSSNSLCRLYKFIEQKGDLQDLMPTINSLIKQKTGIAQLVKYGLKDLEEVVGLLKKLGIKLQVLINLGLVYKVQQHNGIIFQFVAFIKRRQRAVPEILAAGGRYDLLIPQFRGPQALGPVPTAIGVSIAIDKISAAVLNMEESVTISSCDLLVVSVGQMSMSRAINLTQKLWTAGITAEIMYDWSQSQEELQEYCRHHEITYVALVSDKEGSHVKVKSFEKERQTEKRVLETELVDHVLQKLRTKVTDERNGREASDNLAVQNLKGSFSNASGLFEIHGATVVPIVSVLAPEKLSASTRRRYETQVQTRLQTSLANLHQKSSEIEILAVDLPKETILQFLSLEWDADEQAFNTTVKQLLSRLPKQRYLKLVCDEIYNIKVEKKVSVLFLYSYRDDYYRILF
Summary of the method: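 U2OS cells adhered overnight, then given compound (top 40 μM, 4-fold serial dilutions) plus 10 μM borrelidin for 1 h at 37 °C. Lysates assayed for eIF2α phospho-Ser51 by AlphaScreen SureFire; % inhibition versus borrelidin-only wells.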

GCN2 kinase, sequence (Q9P2K8 whole entry): as above

pIC50 [1]	pIC50 [2]	SMILES
7.00 to 8.00	5.30 to 6.30	C[C@H]1[C@@H](c2cn[nH]c2)N(C2COC2)CCN1c1ccnc(-c2cnc3ccc(C(F)(F)F)cn23)n1 [I-361, 3-(4-((2S,3R)-2-methyl-4-(oxetan-3-yl)-3-(1H-pyrazol-4-yl)piperazin-1-yl)pyrimidin-2-yl)-6-(trifluoromethyl)imidazo[1,2-a]pyridine]
> 8.00	> 6.30	C[C@@H]1[C@H](c2cn[nH]c2)N(C2COC2)CCN1c1ccnc(-c2cnc3ccc(C(F)(F)F)cn23)n1 [I-362, 4-[(2R,3 S)-2-methyl-4-(oxetan-3-yl)-3-(1H-pyrazol-4-yl)piperazin-1-yl]-2-[6-(trifluoromethyl)imidazo[1,2-a]pyridin-3-yl]pyrimidine]
6.00 to 7.00	5.30 to 6.30	C[C@@H]1[C@@H](c2cn[nH]c2)N(C2COC2)CCN1c1ccnc(-c2cnc3ccc(C(F)(F)F)cn23)n1 [I-363, 3-(4-((2R,3R)-2-methyl-4-(oxetan-3-yl)-3-(1H-pyrazol-4-yl)piperazin-1-yl)pyrimidin-2-yl)-6-(trifluoromethyl)imidazo[1,2-a]pyridine]
6.00 to 7.00	< 5.30	C[C@H]1[C@H](c2cn[nH]c2)N(C2COC2)CCN1c1ccnc(-c2cnc3ccc(C(F)(F)F)cn23)n1 [I-364, 3-(4-((2S,3 S)-2-methyl-4-(oxetan-3-yl)-3-(1H-pyrazol-4-yl)piperazin-1-yl)pyrimidin-2-yl)-6-(trifluoromethyl)imidazo[1,2-a]pyridine]
6.00 to 7.00	5.30 to 6.30	Cc1[nH]ncc1[C@@H]1[C@H](C)N(c2ccnc(-c3cnc4ccc(C(F)(F)F)cn34)n2)CCN1C1COC1 [I-365]
6.00 to 7.00	5.30 to 6.30	Cc1[nH]ncc1[C@@H]1[C@@H](C)N(c2ccnc(-c3cnc4ccc(C(F)(F)F)cn34)n2)CCN1C1COC1 [I-368]
> 8.00	> 6.30	FC(F)(F)c1ccc2ncc(-c3nccc(N4CCN(CC5CC5)C(c5cn[nH]c5)C4)n3)n2c1 (centres unmarked) [I-369, 4-[4-(cyclopropylmethyl)-3-(1H-pyrazol-4-yl)piperazin-1-yl]-2-[6-(trifluoromethyl)imidazo[1,2-a]pyridin-3-yl]pyrimidine]
> 8.00	> 6.30	FC(F)(F)c1ccc2ncc(-c3nccc(N4CCN(CC5C6COCC65)C(c5cn[nH]c5)C4)n3)n2c1 (centres unmarked) [I-370, 3-(4-(4-((3-oxabicyclo[3.1.0]hexan-6-yl)methyl)-3-(1H-pyrazol-4-yl)piperazin-1-yl)pyrimidin-2-yl)-6-(trifluoromethyl)imidazo[1,2-a]pyridine]
> 8.00	5.30 to 6.30	FC(F)(F)c1ccc2ncc(-c3nccc(N4CCN(Cc5ncc[nH]5)C(c5cn[nH]c5)C4)n3)n2c1 (centres unmarked) [I-371, 3-(4-(4-((1H-imidazol-2-yl)methyl)-3-(1H-pyrazol-4-yl)piperazin-1-yl)pyrimidin-2-yl)-6-(trifluoromethyl)imidazo[1,2-a]pyridine]
> 8.00	5.30 to 6.30	Cc1ncc(CN2CCN(c3ccnc(-c4cnc5ccc(C(F)(F)F)cn45)n3)CC2c2cn[nH]c2)[nH]1 (centres unmarked) [I-372, 3-(4-(4-((2-methyl-1H-imidazol-5-yl)methyl)-3-(1H-pyrazol-4-yl)piperazin-1-yl)pyrimidin-2-yl)-6-(trifluoromethyl)imidazo[1,2-a]pyridine]
> 8.00	> 6.30	CC(C)(C)c1ncc(CN2CCN(c3ccnc(-c4cnc5ccc(C(F)(F)F)cn45)n3)CC2c2cn[nH]c2)[nH]1 (centres unmarked) [I-373, 3-(4-(4-((2-(tert-butyl)-1H-imidazol-5-yl)methyl)-3-(1H-pyrazol-4-yl)piperazin-1-yl)pyrimidin-2-yl)-6-(trifluoromethyl)imidazo[1,2-a]pyridine]
> 8.00	5.30 to 6.30	OC1CC(N2CCN(c3ccnc(-c4cnc5ccc(C(F)(F)F)cn45)n3)CC2c2cn[nH]c2)C1 (centres unmarked) [I-383, 3-(2-(1H-pyrazol-4-yl)-4-(2-(6-(trifluoromethyl)imidazo[1,2-a]pyridin-3-yl)pyrimidin-4-yl)piperazin-1-yl)cyclobutan-1-ol]
> 8.00	> 6.30	Cn1cc(CN2CCN(c3ccnc(-c4cnc5ccc(C(F)(F)F)cn45)n3)CC2c2cn[nH]c2)cn1 (centres unmarked) [I-384, 3-(4-(4-((1-methyl-1H-pyrazol-4-yl)methyl)-3-(1H-pyrazol-4-yl)piperazin-1-yl)pyrimidin-2-yl)-6-(trifluoromethyl)imidazo[1,2-a]pyridine]
> 8.00	5.30 to 6.30	FC(F)(F)c1ccc2ncc(-c3nccc(N4CCN(Cc5cnc[nH]5)C(c5cn[nH]c5)C4)n3)n2c1 (centres unmarked) [I-385, 3-(4-(4-((1H-imidazol-5-yl)methyl)-3-(1H-pyrazol-4-yl)piperazin-1-yl)pyrimidin-2-yl)-6-(trifluoromethyl)imidazo[1,2-a]pyridine]
6.00 to 7.00	5.30 to 6.30	CC(C)(C)OC(=O)N1CC2(C1)CN(c1ccnc(-c3cnc4ccc(C(F)(F)F)cn34)n1)CCO2 [I-386, tert-butyl 8-(2-(6-(trifluoromethyl)imidazo[1,2-a]pyridin-3-yl)pyrimidin-4-yl)-5-oxa-2,8-diazaspiro[3.5]nonane-2-carboxylate]
6.00 to 7.00	5.30 to 6.30	CC(C)(C)OC(=O)N1CC2(CCCN(c3ccnc(-c4cnc5ccc(C(F)(F)F)cn45)n3)C2)C1 [I-387, tert-butyl 6-(2-(6-(trifluoromethyl)imidazo[1,2-a]pyridin-3-yl)pyrimidin-4-yl)-2,6-diazaspiro[3.5]nonane-2-carboxylate]
6.00 to 7.00	< 5.30	CC(C)(C)OC(=O)N1CC2(C1)OCCN(c1ccnc(-c3cnc4ccc(C(F)(F)F)cn34)n1)C2(C)C [I-388, tert-butyl 9,9-dimethyl-8-(2-(6-(trifluoromethyl)imidazo[1,2-a]pyridin-3-yl)pyrimidin-4-yl)-5-oxa-2,8-diazaspiro[3.5]nonane-2-carboxylate]
7.00 to 8.00	5.30 to 6.30	NC(=O)C1CN(c2ccnc(-c3cnc4cc(F)c(Cl)cn34)n2)CCN1C1CC1 (centres unmarked) [I-389, 4-(2-(6-chloro-7-fluoroimidazo[1,2-a]pyridin-3-yl)pyrimidin-4-yl)-1-cyclopropylpiperazine-2-carboxamide]
> 8.00	> 6.30	OCC1CC(N2CCN(c3ccnc(-c4cnc5ccc(C(F)(F)F)cn45)n3)CC2c2cn[nH]c2)C1 (centres unmarked) [I-390, (3-(2-(1H-pyrazol-4-yl)-4-(2-(6-(trifluoromethyl)imidazo[1,2-a]pyridin-3-yl)pyrimidin-4-yl)piperazin-1-yl)cyclobutyl)methanol]
6.00 to 7.00	5.30 to 6.30	CC(C)n1cc(C(=O)N2CCN(c3ccnc(-c4cnc5ccc(C(F)(F)F)cn45)n3)CC2c2cn[nH]c2)cn1 (centres unmarked) [I-391, (2-(1H-pyrazol-4-yl)-4-(2-(6-(trifluoromethyl)imidazo[1,2-a]pyridin-3-yl)pyrimidin-4-yl)piperazin-1-yl)(1-isopropyl-1H-pyrazol-4-yl)methanone]
6.00 to 7.00	5.30 to 6.30	CC1CN(c2ccnc(-c3cnc4ccc(C(F)(F)F)cn34)n2)CC(C)N1C1CC1 (centres unmarked) [I-392, 3-(4-(4-cyclopropyl-3,5-dimethylpiperazin-1-yl)pyrimidin-2-yl)-6-(trifluoromethyl)imidazo[1,2-a]pyridine]
6.00 to 7.00	5.30 to 6.30	CC1CN(c2ccnc(-c3cnc4ccc(C(F)(F)F)cn34)n2)CC(C)N1CC#N (centres unmarked) [I-393, 2-(2,6-dimethyl-4-(2-(6-(trifluoromethyl)imidazo[1,2-a]pyridin-3-yl)pyrimidin-4-yl)piperazin-1-yl)acetonitrile]
6.00 to 7.00	5.30 to 6.30	CS(=O)(=O)N1CC2(CCCN(c3ccnc(-c4cnc5ccc(C(F)F)cn45)n3)C2)C1 [I-395, 6-(2-(6-(difluoromethyl)imidazo[1,2-a]pyridin-3-yl)pyrimidin-4-yl)-2-(methylsulfonyl)-2,6-diazaspiro[3.5]nonane]
7.00 to 8.00	< 5.30	CC1(C)CN(c2ccnc(-c3cnc4ccc(C(F)F)cn34)n2)CC2(CN(S(C)(=O)=O)C2)O1 [I-396, 8-(2-(6-(difluoromethyl)imidazo[1,2-a]pyridin-3-yl)pyrimidin-4-yl)-6,6-dimethyl-2-(methylsulfonyl)-5-oxa-2,8-diazaspiro[3.5]nonane]
7.00 to 8.00	5.30 to 6.30	O=C(C1CC1)N1CCN(c2ccnc(-c3cnc4ccc(C(F)(F)F)cn34)n2)CC1c1cn[nH]c1 (centres unmarked) [I-397, (2-(1H-pyrazol-4-yl)-4-(2-(6-(trifluoromethyl)imidazo[1,2-a]pyridin-3-yl)pyrimidin-4-yl)piperazin-1-yl)(cyclopropyl)methanone]
6.00 to 7.00	5.30 to 6.30	c1ccc(Oc2ccc3ncc(-c4nccc(N5CCC[C@H](c6cn[nH]c6)C5)n4)n3c2)cc1 [I-398, 2-{6-phenoxyimidazo[1,2-a]pyridin-3-yl}-4-[(3R)-3-(1H-pyrazol-4-yl)piperidin-1-yl]pyrimidine]
7.00 to 8.00	5.30 to 6.30	c1ccc(Oc2ccc3ncc(-c4nccc(N5CCC[C@@H](c6cn[nH]c6)C5)n4)n3c2)cc1 [I-399]
7.00 to 8.00	5.30 to 6.30	O=C(C1CC1(F)F)N1CCN(c2ccnc(-c3cnc4ccc(C(F)(F)F)cn34)n2)CC1c1cn[nH]c1 (centres unmarked) [I-400, (2-(1H-pyrazol-4-yl)-4-(2-(6-(trifluoromethyl)imidazo[1,2-a]pyridin-3-yl)pyrimidin-4-yl)piperazin-1-yl)(2,2-difluorocyclopropyl)methanone]
